Results from ChEMBL document CHEMBL2429735, “Preparation of imidazoles as potent calcitonin gene-related peptide (CGRP) antagonists” (Bioorg Med Chem Lett, 2013).
pIC50: −log10 of the molar value.

Columns and labels:
[1] = target: Calcitonin gene-related peptide type 1 receptor (Homo sapiens, UniProt O60894+Q16602); assay: Antagonist activity at human CGRP receptor expressed in human SK-N-MC cells assessed as inhibition of CGRP-stimulated cAMP production; type: functional, cell-based
Liver = assay: Metabolic stability in mouse liver microsomes assessed as compound remaining; type: ADME, Microsome
Liver microsomes [2] = assay: Metabolic stability in human liver microsomes assessed as compound remaining; type: ADME, Microsome
Liver microsomes [3] = assay: Metabolic stability in rat liver microsomes assessed as compound remaining; type: ADME, Microsome
[4] = Permeability of the compound by PAMPA method at pH 7.4; type: ADME; conditions: read-out: permeability

Chain of Calcitonin gene-related peptide type 1 receptor (Q16602 whole entry, one chain of several): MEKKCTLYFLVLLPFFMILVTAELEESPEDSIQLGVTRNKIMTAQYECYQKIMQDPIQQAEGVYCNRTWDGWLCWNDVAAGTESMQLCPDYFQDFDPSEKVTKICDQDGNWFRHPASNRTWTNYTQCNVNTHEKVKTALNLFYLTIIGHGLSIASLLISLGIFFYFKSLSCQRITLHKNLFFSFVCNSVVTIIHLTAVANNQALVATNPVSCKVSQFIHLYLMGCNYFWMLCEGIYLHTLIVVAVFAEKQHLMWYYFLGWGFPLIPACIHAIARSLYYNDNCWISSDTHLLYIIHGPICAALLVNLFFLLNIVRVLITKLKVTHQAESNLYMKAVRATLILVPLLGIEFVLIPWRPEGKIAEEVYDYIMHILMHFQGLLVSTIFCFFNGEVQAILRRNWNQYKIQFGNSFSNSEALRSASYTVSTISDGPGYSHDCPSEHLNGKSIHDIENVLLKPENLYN

Compound	pIC50 [1]	Stability (Liver) [%]	Stability (Liver microsomes [2]) [%]	Stability (Liver microsomes [3]) [%]	Papp [4] [×10⁻⁶ cm/s]
Cc1cc(CC(NC(=O)N2CCC(N3Cc4ccccc4NC3=O)CC2)c2nccn2Cc2ccc(C(C)(C)C)cc2)cc2cn[nH]c12 (racemic)	9.72	–	–	–	–
Cc1cc(CC(NC(=O)N2CCC(N3Cc4ccccc4NC3=O)CC2)c2nc(Br)cn2Cc2cc(F)cc(F)c2)cc2cn[nH]c12 (racemic)	9.41	93	100	100	–
Cc1cc(CC(NC(=O)N2CCC(N3Cc4ccccc4NC3=O)CC2)c2ncc(Br)[nH]2)cc2cn[nH]c12 (racemic)	8.13	–	–	–	–
Cc1cc(Cn2ccnc2C(Cc2cc(C)c3[nH]ncc3c2)NC(=O)N2CCC(N3Cc4ccccc4NC3=O)CC2)ccn1 (racemic)	9.89	1	1	2	–
Cc1cc(Cn2ccnc2C(Cc2cc(C)c3[nH]ncc3c2)NC(=O)N2CCC(N3Cc4ccccc4NC3=O)CC2)cc(Cl)n1 (racemic)	10.11	0	2	2	3.8
Cc1cc(CC(OC(=O)N2CCC(c3cc4ccccc4[nH]c3=O)CC2)c2ncc3n2CCN(Cc2ccccc2)C3)cc2cn[nH]c12 (racemic)	–	9	41	32	–
Cc1cc(CC(NC(=O)N2CCC(N3Cc4ccccc4NC3=O)CC2)c2nccn2Cc2ccc(F)cc2)cc2cn[nH]c12 (racemic)	9.01	–	–	–	–
Cc1cc(CC(NC(=O)N2CCC(N3Cc4ccccc4NC3=O)CC2)c2nc(Br)c(Br)[nH]2)cc2cn[nH]c12 (racemic)	8.32	–	–	–	–
Cc1cc(CC(NC(=O)N2CCC(N3Cc4ccccc4NC3=O)CC2)c2ncc[nH]2)cc2cn[nH]c12 (racemic)	7.01	–	–	–	–
Cc1cc(CC(NC(=O)N2CCC(N3Cc4ccccc4NC3=O)CC2)c2nccn2Cc2cccnc2)cc2cn[nH]c12 (racemic)	9.38	2	4	20	–
Cc1cc(CC(NC(=O)N2CCC(N3Cc4ccccc4NC3=O)CC2)c2nccn2Cc2ccccn2)cc2cn[nH]c12 (racemic)	8.80	0	1	1	–
Cc1cc(CC(NC(=O)N2CCC(N3Cc4ccccc4NC3=O)CC2)c2nccn2Cc2cccc(F)c2)cc2cn[nH]c12 (racemic)	9.20	–	–	–	–
Cc1cc(CC(NC(=O)N2CCC(N3Cc4ccccc4NC3=O)CC2)c2nccn2Cc2cc(F)cc(F)c2)cc2cn[nH]c12 (racemic)	9.41	66	84	78	–
Cc1cc(CC(OC(=O)N2CCC(c3cc4ccccc4[nH]c3=O)CC2)c2ncc3n2CCN(C2CCCCC2)C3)cc2cn[nH]c12 (racemic)	–	21	41	30	–
Cc1c[nH]c(C(Cc2cc(C)c3[nH]ncc3c2)NC(=O)N2CCC(N3Cc4ccccc4NC3=O)CC2)n1 (racemic)	6.92	–	–	–	–
Cc1cc(CC(NC(=O)N2CCC(N3Cc4ccccc4NC3=O)CC2)c2nccn2Cc2ccccc2F)cc2cn[nH]c12 (racemic)	8.72	–	–	–	–
Cc1cc(CC(NC(=O)N2CCC(N3Cc4ccccc4NC3=O)CC2)c2nccn2Cc2ccncc2)cc2cn[nH]c12 (racemic)	9.08	–	–	–	–
Cc1cc(CC(NC(=O)N2CCC(N3Cc4ccccc4NC3=O)CC2)c2nccn2C)cc2cn[nH]c12 (racemic)	8.32	–	–	–	–
Cc1cc(CC(NC(=O)N2CCC(N3Cc4ccccc4NC3=O)CC2)c2ncc(C)n2Cc2cccc(F)c2)cc2cn[nH]c12 (racemic)	9.43	85	100	87	–
Cc1cc(CC(NC(=O)N2CCC(N3Cc4ccccc4NC3=O)CC2)c2nccn2CCc2ccccc2)cc2cn[nH]c12 (racemic)	9.06	–	–	–	–
Cc1cc(CC(OC(=O)N2CCC(c3cc4ccccc4[nH]c3=O)CC2)c2ncc3n2CCNC3)cc2cn[nH]c12 (racemic)	8.54	–	–	–	–
Cc1cc(C[C@@H](NC(=O)N2CCC(N3Cc4cccc(F)c4NC3=O)CC2)C(=O)N2CCC(N3CCCCC3)CC2)cc2cn[nH]c12	10.59	–	–	–	1.1
Cc1cc(CC(NC(=O)N2CCC(N3Cc4ccccc4NC3=O)CC2)c2nccn2Cc2ccccc2)cc2cn[nH]c12 (racemic)	9.11	–	–	–	–
